Test [1] relates to L1210. Briefly: Inhibitory activity against L1210 growth using clonogenic assay. To be noted: Mus musculus. It is filed as functional, cell-based.
For test [2], the species on record is Mus musculus. Briefly: Inhibitory activity against murine leukemia. Type of test: functional, organism-based.
The subject of test [3] is P388. Briefly: Inhibitory activity against adriamycin-sensitive and resistant cells in P388 and P388-ADR cells. Type of test: functional, cell-based. To be noted: Mus musculus.

One may read the IC50 as the point on the concentration scale where inhibition reaches its midpoint. High values mean weaker potency in that assay, low ones greater potency in that assay. `CCCCCCCCCCCCCCCCOC[C@H](CCP(=O)([O-])OCC[N+](C)(C)C)OC`: the IC50 in test [1] was determined as 2500 nM; in test [2] it was 1000 nM; in test [3] it was 2500 nM.
As for `CCCCCCCCCCCCCCCCSC[C@H](CCP(=O)([O-])OCC[N+](C)(C)C)OC`, the midpoint of inhibition in test [2], the IC50, lay at 1000 nM.

The values are drawn from ChEMBL document CHEMBL1127323, “Isosteric phosphonate analogs of ET-16-OMe. Synthesis and biological evaluation of the enantiomers of 2'-(trimethylammonio)ethyl 4-(hexadecyloxy)-3-methoxybutanephosphonate and 2'-(trimethylammonio)ethyl 4-(hexadecylthio)-3-methoxybutanephosphonate” (J Med Chem, 1994).
